The source of these data is patent US8524740B2, “Synthesis and anticancer activity of aryl and heteroaryl-quinolin derivatives” (Tairx, Inc., priority 2010, dated 2013).

Bounds are passed on as bounds.

In general, IC50 refers to the concentration at which inhibition is half-maximal. Higher therefore signals weaker potency in that assay. As usually defined, the melting point is the temperature, or range, at which the solid turns liquid.

For data set [1], the system named is A498. Briefly: MTT assay, A498 cells. The format is cell-based. The conditions noted are these: Homo sapiens, Table 6. The procedure: (§1) MTT (3-(4,5-Dimethylthiazol-2-yl)-2,5-diphenyltetrazolium bromide) assays. HL-60, Hep 3B, H460, A498, Colo205 and Detroit 551 cells were treated with tested compounds for the indicated periods. After treatment, cells were washed once with PBS and incubated with MTT (Sigma, St. Louis, Mo., USA) for 2 h. The formazan precipitate was dissolved in 150 μL of DMSO, and the absorbance was measured with an ELISA reader at 570 nm.
(Formazan colour is commonly taken as a measure of viable cells.)

The subject of data set [2] is Hep3B. Description: MTT assay, Hep 3B cells. The format is cell-based. The conditions noted are these: Homo sapiens. The essentials: (§2)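 Cells exposed to compounds for 48 h (other runs: indicated periods), then washed with PBS and given MTT for 2 h. Formazan dissolved in DMSO and read at 570 nm as a measure of cell growth.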
Data set [3] relates to Detroit 551. Description: MTT assay, Detroit 551 normal human cells. Format: cell-based. The conditions noted are these: Detroit 551, MTT. The essentials: (§3)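 H460 and Detroit 551 cells exposed to test compounds for 48 h (vehicle control); growth measured by MTT reduction, 2 h MTT incubation, formazan dissolved in DMSO, absorbance at 570 nm.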
Data set [4] has as its system Colo205. Description: MTT assay, Colo205 cells. Format: cell-based. The conditions noted are these: Homo sapiens, COLO 205, Table 6. The procedure:
as §1

Data set [5] relates to HL-60. Description: MTT assay, HL-60 cells. Format: cell-based. The conditions noted are these: Homo sapiens. The essentials: as §2
In data set [6] the test system is H460. Briefly: MTT assay, H460 cells. The format is cell-based. The conditions noted are these: Homo sapiens, NCI-H460, MTT. In a few lines:
as §3

Data set [7] concerns Hep-3B human hepatocellular carcinoma xenograft. Briefly: In vivo antitumor activity assay, Hep3B xenograft nude mice. Further details: species or system Balb/c Nude mice. The conditions noted are these: for Hep3B tumor growth suppression compared with doxorubicin: 7.5 mg/kg/day p.o., doxorubicin 10 mg/kg p.o.; for antitumor activity by i.v. route compared with p.o. route: i.v., 7.5, 15, 30 mg/kg qd; for inhibition of Hep3B tumor growth (dose and time dependence): p.o., 7.5, 15, 30 mg/kg/day. The procedure:
The Hep-3B tumor cell line was purchased from American Type Culture Collection (ATCC™HB-8064, human hepatocellular carcinoma cells). The culture medium contained DMEM, 90%; Fetal Bovine Serum, 10% and 1% penicillin-streptomycin. The tumor cells were incubated in an atmosphere containing 5% CO2 at 37° C.
Balb/c Nude mice used in this study were male, 4-6 weeks age, weighing 18-20 g and provided by National Animal Center. All animals were housed in Individually Ventilated Cages Racks (IVC Racks, 36 Mini Isolator system) under Specific Pathogen-Free (SPF) condition throughout the experiment. Each cage (in cm, 26.7 length×20.7 width×14.0 height) was sterilized with autoclave and contained 8 mice, and then the animals were maintained in a hygienic environment under controlled temperature (20-24° C.) and humidity (40%-70%) with 12 hour light/dark cycle. The animals were given free access to sterilized lab chow and sterilized distilled water ad libilum. All aspects of this work, i.e., housing, experimentation and disposal of animals were performed in general accordance with the Guide for the Care and Use of Laboratory Animals (National Academy Press, Washington, D.C., 1996).
(§4) In the xenotraft tumor model of human hepatocellular carcinoma cell lines (Hep-3B, ATCC HB-8064) in male Balb/c Nude mice, the compounds 49 at doses at 7.5, 15 and 30 mg/kg (i.v. or p.o., bid) was administered five days per week for four consecutive weeks by p.o, or i.v. and ceased at Day 28. The compounds 52 at doses at 7.5, 15 and 30 mg/kg (i.v. or p.o., qd) was administered five days per week for four consecutive weeks and ceased at Day 28. The tumor size, body weight was monitored and recorded for 28 days. Human hepatocellular carcinoma cells (HEP-3B ATCC HB-8064) with 2×10^6 cells in 0.1 ml were injected subcutaneously into the right flank of the mice. When the tumor growth reached >100 mm^3 in volume (assumed as day 0), the tumor-bearing animals were assigned into several groups (8 animals in each group) for study.
(§5) The body weight and tumor size were measured and recorded every 7 days during the experimental periods of 28 days. Tumor volume (mm^3) was estimated according to the formula of length×[…]×0.5 in mm^3. Tumor growth inhibition was calculated as T/C (treatment/control) by the following formula: T/C=(Tn−T0)/(Cn−C0)×100% (T0: Tumor volume of treated group in Day 0; Tn: Tumor volume of treated group in Day n; C0: Tumor volume of control group in Day 0; Cn: Tumor volume of control group in Day n).
The Hep-3B tumor cell line was purchased from American Type Culture Collection (ATCC HB-8064, human hepatocellular carcinoma cells). A culture medium of 90% DMEM, 10% Fetal Bovine Serum, supplemented with 1% penicillin-streptomycin, was used. The tumor cells were incubated in an atmosphere containing 5% CO2 at 37° C.
Balb/c Nude mice used in this stud were male, 4-6 weeks age, weighing 18-20 g and provided by National Animal Center. All animals were housed in individually ventilated cages racks (IVC Racks, 36 Mini Isolator system) under specific pathogen-free (SPF) conditions throughout the experiment. Each cage (in cm, 26.7 length×20.7 width×14.0 height) was sterilized with autoclave and contained eight mice. The animals were maintained in a hygienic environment under controlled temperature (20-24° C.) and humidity (40% -70%) with a 12 hour light/dark cycle. The animals were given free access to sterilized lab chow and sterilized distilled water ad libitum. All aspects of this work, i.e., housing, experimentation and disposal of animals, were performed in general accordance with the Guide for the Care and Use of Laboratory Animals (National Academy Press, Washington, D.C., 1996). […]

The nature of data set [8]: Body weight monitoring in Hep3B xenograft nude mice. The conditions noted are these: during the course of antitumor evaluation (28 days). Format: in vivo, Balb/c Nude mice. How it is done:
as §4, §5
In the xenograft tumor model of human hepatocellular carcinoma cell lines (Hep-3B, ATCC HB-8064) in male Balb/c Nude mice, compound 147 prepared in 9% (w/v) NaHCO3 solution at doses of 7.5, 15 and 30 mg/kg -i.v.or p.o., qd) was administered five days per week for four consecutive weeks and ceased at Day 28. The tumor size and body weight were monitored and recorded for 28 days. Human hepatocellular carcinoma cells (HEP-3,ATCC HB-8064) with 2 ×10^6 cells in 0.1 mL were injected subcutaneously into the right flank of the mice. […]
The body weight and tumor size were measured and recorded every seven days during the experiment periods of 28 days. […]

For data set [9] the following is noted: oral and intravenous administration (CHM-2133-P); cited from earlier work.
In data set [10] the test system is HCT116. Description: MTT assay, HCT-116 cells. Format: cell-based. The conditions noted are these: Homo sapiens. The procedure: MTT (3-(4,5-Dimethylthiazol-2-yl)-2,5-diphenyltetrazolium bromide) assays.^21,22 HL-60, HCT-116, Hep 3B, H460, Detroit 551 and HT29/FuR cells were treated with tested compounds for the indicated periods. After treatment, cells were washed once with PBS and incubated with MTT (Sigma, St. Louis, Mo., USA) for 2 h. The formazan precipitate was dissolved in 150 μL of DMSO, and the absorbance was measured with an ELISA reader at 570 nm.
(§6) MTT (3-(4,5-Dimethylthiazol-2-yl)-2,5-diphenyltetrazolium bromide) assays. HL-60, HCT-116, A549, Hep 3B, KB, Kb-VIN and DU145 cells were treated with tested compounds for the indicated periods. After treatment, cells were washed once with PBS and incubated with MTT (Sigma, St. Louis, Mo., USA) for 2 h. The formazan precipitate was dissolved in 150 μL of DMSO, and the absorbance was measured with an ELISA reader at 570 nm.

Data set [11] relates to DU145. Briefly: MTT assay, DU145 cells. Format: cell-based. The conditions noted are these: Homo sapiens, DU-145, Table 5. How it is done:
as §6

Data set [12] has as its system A549. Briefly: MTT assay, A549 cells. The conditions noted are these: Homo sapiens, Table 5. The format is cell-based. How it is done: as §6
Data set [13] deals with KB. Briefly: MTT assay, KB cells. The format is cell-based. The conditions noted are these: Homo sapiens, Table 5. The procedure:
as §6

Data set [14] concerns Kb-VIN. Description: MTT assay, Kb-VIN cells. The format is cell-based. The conditions noted are these: Homo sapiens, KBVIN, Table 5. How it is done: as §6
The conditions of data set [15]: previous report; cited from earlier work.

In turn, `COc1cc(O)cc(-c2cc(=O)c3cc4c(cc3[nH]2)OCO4)c1` [Compound 166, 2-(3-Hydroxy-5-methoxyphenyl)-6,7-methylenedioxyquinolin-4-one] registered a melting point of over 300 °C. Besides, in [1], the IC50 was over 50000 nM. Besides, the IC50 in data set [2] (Table 6, MTT) was over 50000 nM. The IC50 in data set [3] (Homo sapiens, Table 6) is over 50000 nM. The molecule also came in with an IC50 in data set [4] of over 50000 nM. In data set [5] (Table 6, MTT), this molecule showed an IC50 of 400 nM. For the same molecule, in [6] (Table 6), the IC50 was over 50000 nM.

For `COc1ccc2nc(-c3cccc(F)c3)cc(OP(=O)(O)O)c2c1OP(=O)(O)O` [Compound 49, 2-(3-Fluorophenyl)-6-methoxyquinoline-4,5-diyl bis(dihydrogen phosphate)], in data set [7] (7.5 mg/kg i.v. or p.o., bid, doxorubicin 5 mg/kg i.v. qd, 10 mg/kg p.o. qd), the “antitumor activity compared with doxorubicin” value is reported as “exceeded that of doxorubicin”. In addition, the “antitumor activity (dose and time dependence)” value in data set [7] (7.5, 15 and 30 mg/kg, i.v. or p.o., bid, five days per week for four weeks) is “dose- and time-dependent manner”. Further, the body weight changes entry in data set [8] is reported as “no significant body weight changes”.

`COc1ccc2[nH]c(-c3cccc(F)c3)cc(=O)c2c1OP(=O)(O)O` [Compound 52, 2-(3-Fluorophenyl)-6-methoxy-4-oxo-1,4-dihydroquinolin-5-yl dihydrogen phosphate]: in [7], the “Hep3B tumor growth suppression compared with doxorubicin” value is listed as “Significant tumor growth suppression”; the “antitumor activity by i.v. route compared with p.o. route” value is recorded as “slight better antitumor activity”; the “inhibition of Hep3B tumor growth (dose and time dependence)” value was “dose- and time-dependent inhibition”. In addition, the tumor suppression entry in data set [7] (30 mg/kg/day oral dosing) is “Near complete tumor suppression”. Moreover, the body weight changes entry in [8] is “no significant body weight changes”.

For the molecule `O=c1cc(-c2ccccc2F)[nH]c2cc3c(cc12)OCO3` [CHM-2133, 2-(2-fluorphenyl)-6,7-methylenedioxyquinolin-4-one, reference compound], the concentration for half-maximal inhibition (IC50) in [2] (Table 1, 48 h, MTT) is 130 nM; in data set [3] (Table 1, 48 h, normal human cell), 8200 nM; in data set [5] (Table 1, 48 h, MTT) it was 80 nM; in data set [10] (Table 1, 48 h) it was 150 nM; in data set [6] (Table 1, 48 h), 140 nM. Also, the “antitumor activity in vivo (earlier work)” value in [9] is on record as “excellent antitumor activity”.

On to `O=c1cc(-c2coc3ccccc23)[nH]c2cc3c(cc12)OCO3` [Compound 156, 2-(3-Benzo[b]furyl)-6,7-methylenedioxyquinolin-4-one], for which the IC50 in data set [11] turned out to be 1870 nM; in [12] it was 2980 nM; in data set [2] (Table 5, MTT), 90 nM; in data set [13], 1050 nM; in data set [5] (Table 5, MTT), 30 nM; in data set [10] (Table 5), 50 nM. The molecule further yielded an IC50 in [14] of 590 nM.

Take `O=c1cc(-c2cccc3ccccc23)[nH]c2cc3c(cc12)OCO3` [Compound 151, 2-(1-Naphthalenyl)-6,7-methylenedioxyquinolin-4-one]: the IC50 in [11] is 130 nM; in data set [12] it was 130 nM; in [2] (Table 5, MTT), 70 nM; in data set [13], 130 nM; in data set [5] (Table 5, MTT) it was 70 nM; in data set [10] (Table 5), 70 nM. This molecule also displayed an IC50 in [14] of 190 nM.

Turning to `O=c1cc(-c2cccc(OP(=O)(O)O)c2)[nH]c2ccc(N3CCCC3)cc12` [Compound 147, 3-(4-Oxo-6-(pyrrolidin-1-yl)-1,4-dihydroquinolin-2-yl)phenyl dihydrogen phosphate], in data set [7], the “Hep3B tumor growth suppression compared with doxorubicin” value is “exceed that of 10 mg/kg doxorubicin”; the “antitumor activity by i.v. route compared with p.o. route” value is “slightly greater activity”; the “inhibition of Hep3B tumor growth (dose and time dependence)” value is “dose- and time-dependent inhibition”. The “weight of Hep3B tumor relative to control” value in [7] (30 mg/kg p.o., % of that of the control) is given as 26.3%. Further, the body weight changes result in data set [8] is reported as “no significant body weight changes”.

On to `O=P(O)(O)Oc1cc(-c2ccccc2F)nc2cc3c(cc12)OCO3` [CHM-2133-P], for which, in [15], the bio-conversion following administration result is “rapid bio-conversion into its active molecule CHM-2133”. Further, the “antitumor activity in vivo (earlier work)” value in [9] is “excellent antitumor activity”.
